Values of other authors as cited in patent US20230364135A1, “GUT-SELECTIVE SEQUESTERING AGENTS FOR THE TREATMENT AND PREVENTION OF AUTISM AND RELATED DISORDERS” (Axial Biotherapeutics, Inc., priority 2017, published 2023).

Test system: naïve, wild-type mice
Conditions: single bolus injection intraperitoneally

For `CCc1ccc(OS(=O)(=O)[O-])cc1.[K+]` [4-EPS, 4-ethylphenylsulfate], the “core symptoms of autism spectrum disorder” value is listed as “did not engender any core symptoms of autism spectrum disorder” and the symptoms of anxiety is listed as “engendered symptoms of anxiety”.
